Assay results taken from patent publication US20230149483A1, “SHORT-CHAIN FATTY ACID USE TO MITIGATE ANT[…] VIRULENCE GENE TRANSFER IN THE GUT” (Iowa State University Research Foundation, Inc., priority 2021, published 2023).
Like-named read-outs stand apart in the source and are kept apart here.

Key:
[1] = tested on: conjugation pairs S. Kentucky CVM29188 to E. coli HS-4 and E. coli APEC-02 to E. coli HS-4; settings: for reduction of donor and recipient strains / transconjugant populations: physiological concentrations of SCFAs in the chicken gut, both conjugation pairs
Description: Physiological concentrations of SCFAs in the chicken gut were added to broth conjugations with the conjugation pairs 1) S. Kentucky CVM29188 to E. coli HS-4, and 2) E. coli APEC-02 to E. coli HS-4 (FIG. 3).

[2] = tested on: conjugation pair E. coli APEC-02 to E. coli HS-4 in chicken ceca explants; type: cell-based
Description: Ex vivo ceca explants serve as models for bacterial host interactions. Plasmid transfer and its inhibition by SCFAs were tested using chicken ceca explants to mimic in vivo conditions. Chicken ceca explants were harvested from 2 week-old chickens, cultured in vitro, and used in co-culture with donors/recipients in the presence or absence of SCFAs.

[3] = tested on: conjugation pair E. coli APEC-02 to E. coli HS-4 (plasmid pAPEC-02-211A-ColV, IncF); type: cell-based
[4] = tested on: transfer of conjugative plasmid pCVM29188_146 (IncF) between E. coli MG1655 (pCVM29188_146) and E. coli HS-4; test: In vitro broth conjugation with propionate at fly media concentrations; type: cell-based; settings: as low as half the concentrations of standard Drosophila fly media
[5] = 25 mM, each SCFA used individually, ceca explants from 2 week-old chickens
[6] = broth conjugation, varying molar concentrations between 0 and 1 molar (FIG. 4)

Row | Compound | reduction of donor and recipient strains [1] | transconjugant populations [1] | efficacy in inhibition of plasmid transfer [2] | transconjugant populations [3] | efficacy in inhibition of plasmid transfer [2, 5] | transconjugant populations [3, 6] | conjugation ([1]; physiological concentrations of propionate in the chicken gut) | conjugation frequency (transconjugants divided by donors) [4]
1 | CC(=O)O [acetic acid] | not | significantly reduced | showed efficacy | significantly reduced | – | – | – | –
2 | CCCC(=O)O [butyric acid, butyric (butanoic) acid] | not | significantly reduced | – | – | showed efficacy | significantly reduced | – | –
3 | O=CO [formic acid] | – | – | showed efficacy | significantly reduced | – | – | – | –
4 | CC(C)C(=O)O [isobutyric acid, isobutyric (2-methylbutanoic) acid] | – | – | – | – | showed efficacy | significantly reduced | – | –
5 | CC(C)CC(=O)O [isovaleric acid, isovaleric (3-methylbutanoic)] | – | – | – | – | showed efficacy | significantly reduced | – | –
6 | CCC(=O)O [propionic acid] | – | – | – | – | showed efficacy | significantly reduced | did not significantly reduce | significant decreases
7 | CCCCC(=O)O [valeric acid, valeric (pentanoic) acid] | – | – | – | – | showed efficacy | significantly reduced | – | –
